Where a name gives a salt, the structure may show the parent alone.
What was measured:
[1] = system: LPS-induced TNF-α production in RAW264.7 murine macrophage cells; assay: Suppression of LPS-induced TNF-α production in RAW264.7 macrophages (ELISA); format: cell-based; conditions: Mus musculus; 1 mM test substance; LPS 1 μg/ml; RAW264.7 cells
Source text: UC is an inflammatory disease characterized by the infiltration of inflammatory cells, such as macrophages, into the lesioned colon. Macrophages serve a critical role in the initiation and propagation of inflammatory responses by releasing proinflammatory mediators, such as TNF-α. Lipopolysaccharide (LPS) is a potent initiator of an inflammatory response. During LPS stimulation, NF-κB signaling is activated to regulate the transcription of numerous genes involved in immunity and inflammation to produce proinflammatory cytokines, such as TNF-α. Suppression of LPS-induced TNF-α production in RAW264.7 macrophages treated with AABZ was investigated by evaluation of the generation of TNF-α. The aim of this study was to evaluate the anti-inflammatory activity of AABZ.
The RAW264.7 macrophage line was maintained in DMEM supplemented with 5% FBS at 37° C. in a 5% […] air environment. The RAW264.7 cells were seeded in 96-well plates at a density of 1×10^5/ml and a volume of 200 μl/well. […] The supernatants were subsequently harvested at various time points and production of the proinflammatory cytokine TNF-α in the culture medium was determined using a commercially available enzyme-linked immunosorbent assay (ELISA) kit according to the manufacturer's protocol. […]

[2] = system: DSS-induced acute colitis in Balb/c mice; assay: Dextran sulfate sodium (DSS)-induced acute colitis, disease activity index; format: in vivo; conditions: day 5
Experimental: The experiment was performed using 6-8-week-old female Balb/c mice after a one-week acclimatization period. The mice weighed 18-25 g, were purchased from Taconic (Denmark) and were maintained in a temperature and light-controlled facility with free access to standard rodent chow and water. Mice were randomized to the respective groups five days before start of treatment and were kept 5 to 6 animals per cage. […] The DSS intake was assessed daily.
SASP (from Sigma-Aldrich, Sweden) was first dissolved in 0.2 M sodium hydroxide (NaOH) at a concentration higher than the required final concentration. Phosphate buffered saline (PBS) was added to the desired concentration and the pH was adjusted to 7.5-8.0 with NaOH or hydrochloric acid. SASP remained completely dissolved at this pH. Cpd A hydrochloride was dissolved in PBS to the desired concentration.
All animal groups had free access to 5% DSS water solution for the entire test period. Treatments were administered from day 0 to day 5, either orally by gavage (SASP) or intraperitoneally (Cpd A), and in an administration volume of 5 ml/kg, twice daily with approximately an 8-hour interval. The control group (DSS only) received water (0.2 ml) orally twice daily. The parameters recorded in the experiment were stool consistency (0, normal; 2, loose stools; 4, watery diarrhoea), occurrence of blood in the stool (0, normal; 2, Hemoccult+; 4, gross bleeding), and body weight loss (0, none; 1, 1-5%; 2, 5-10%; 3, 10-20%; 4, >20%). Disease activity index (DAI) was calculated by summarizing the scores of these three parameters. Also the colon length and the colonic content of myeloperoxidase (MPO) were recorded. Data was statistically evaluated with analysis of variance (ANOVA). Least-squares means (LS means), and standard error (SE) of LS means were calculated.

SMILES: CCN(CC)CCNC(=O)c1ccc(NC(C)=O)cc1 [4-Acetamido-N-[2-(diethylamino)ethyl]benzamide hydrochloride]
- inhibition at 1000 µM [1]: 56%

SMILES: CCN(CC)CCNC(=O)c1ccc(NC(C)=O)c(Cl)c1 [Cpd A, 4-Acetamido-3-chloro-N-[2-(diethylamino)ethyl]benzamide hydrochloride]
- Percent Reduction of Score (Disease Activity Index) vs control ([2]; Cpd A 50 mg/kg/day bid ip): 7%

SMILES: O=C(O)c1cc(/N=N/c2ccc(S(=O)(=O)Nc3ccccn3)cc2)ccc1O [SASP, sulfasalazine]
- Disease Activity Index LS means ± SE ([2]; SASP 20 mg/kg/day bid po): 6.4 ± 0.5
- Percent Reduction of Score (Disease Activity Index) vs control ([2]; SASP 20 mg/kg/day bid po): 8%
- Percent Reduction of Score (Disease Activity Index) vs control ([2]; SASP 40 mg/kg/day bid po): 36%

From US11896564B2, “Medical treatment for pathologic inflammation” (PHARMACYL AB, priority 2018, dated 2024)
